{"source": "patent US6355799B1", "about": "“Substituted benzene compounds, process for their preparation, and herbicidal and defoliant compositions containing them” (ISK Americas Incorporated, priority 1997, dated 2002)", "assay_type_in_all_cases": "in vivo", "key": {"[1]": {"tested_on": "upland rice (Oryza sp., var. Tebonnet, RICE)", "test": "Post-emerge test, crop safety", "details": "phytotoxicity rating 0-100 (0 no damage, 100 complete death), 14 days after application", "how_it_was_run": "(§1)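 Each test used a mechanized track sprayer delivering 187 l/ha of acetone solution at 15–1000 g ai/ha. Post-emerge foliage at 2–3 leaves was treated with added 0.25% v/v non-ionic surfactant and bottom-watered only. Injury was assessed on day 14, where 100 means total kill.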"}, "[2]": {"tested_on": "field corn (Zea mays L., var. Dekalb 535, CORN)", "test": "Post-emerge test, crop safety", "details": "phytotoxicity rating 0-100 (0 no damage, 100 complete death), 14 days after application", "how_it_was_run": "as §1"}, "[3]": {"tested_on": "upland rice (Oryza sp., var. Tebonnet, RICE)", "test": "Pre-emerge test, crop safety", "details": "pre-emerge, rated 14 days after application, 0 = no damage, 100 = complete death", "how_it_was_run": "(§2)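 Sandy loam pots; pre-emerge: sown 1 d pre-spray, surface-watered after, then bottom-watered. Post-emerge: sown 8–21 d before, 2–3 leaf stage, + 0.25% v/v NIS, bottom-watered. Acetone, 187 l/ha track spray, 15–1000 g ai/ha. 0–100 injury score, day 14.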"}, "[4]": {"tested_on": "field corn (Zea mays L., var. Dekalb 535, CORN)", "test": "Pre-emerge test, crop safety", "details": "pre-emerge, rated 14 days after application, 0 = no damage, 100 = complete death", "how_it_was_run": "as §2"}, "[5]": {"tested_on": "redroot pigweed (Amaranthus retroflexus, AMARE)", "test": "Pre-emerge test, greenhouse herbicide activity screening", "details": "pre-emerge, rated 14 days after application, 0 = no damage, 100 = complete death", "how_it_was_run": "(§3)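 Plants grown in 10 cm pots of sandy loam mix received acetone-dissolved compounds through a moving flat-fan nozzle. Doses ranged from 15 to 1000 g ai/ha. Pre-emerge pots were seeded one day earlier, post-emerge pots 8–21 days earlier. Fourteen days on, each pot was graded 0–100 for damage.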"}, "[6]": {"tested_on": "sicklepod (Cassia obtusifolia, CASOB)", "test": "Post-emerge test, greenhouse herbicide activity screening", "details": "phytotoxicity rating 0-100 (0 no damage, 100 complete death), 14 days after application", "how_it_was_run": "(§4)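 Applied at 15–1000 g ai/ha from acetone in 187 l/ha spray volume. Post-emergence applications included 0.25% v/v non-ionic surfactant and reached plants sown 8–21 days before. Pre-emergence applications were incorporated by surface watering. Efficacy or crop damage was rated on a 0–100 scale after 14 days.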"}, "[7]": {"tested_on": "green foxtail (Setaria viridis, SETVI)", "test": "Post-emerge test, greenhouse herbicide activity screening", "details": "phytotoxicity rating 0-100 (0 no damage, 100 complete death), 14 days after application", "how_it_was_run": "as §4"}, "[8]": {"tested_on": "johnsongrass (Sorghum halepense, SORHA)", "test": "Post-emerge test, greenhouse herbicide activity screening", "details": "phytotoxicity rating 0-100 (0 no damage, 100 complete death), 14 days after application", "how_it_was_run": "as §4"}, "[9]": {"tested_on": "large crabgrass (Digitaria sanguinalis, DIGSA)", "test": "Post-emerge test, greenhouse herbicide activity screening", "details": "phytotoxicity rating 0-100 (0 no damage, 100 complete death), 14 days after application", "how_it_was_run": "as §4"}, "[10]": {"tested_on": "velvetleaf (Abutilon theophrasti, ABUTH)", "test": "Post-emerge test, greenhouse herbicide activity screening", "details": "phytotoxicity rating 0-100 (0 no damage, 100 complete death), 14 days after application", "how_it_was_run": "as §4"}, "[11]": {"tested_on": "lambsquarters (Chenopodium album, CHEAL)", "test": "Post-emerge test, greenhouse herbicide activity screening", "details": "phytotoxicity rating 0-100 (0 no damage, 100 complete death), 14 days after application", "how_it_was_run": "as §4"}, "[12]": {"tested_on": "barnyardgrass (Echinochloa crus-galli, ECHCG)", "test": "Post-emerge test, greenhouse herbicide activity screening", "details": "phytotoxicity rating 0-100 (0 no damage, 100 complete death), 14 days after application", "how_it_was_run": "as §4"}, "[13]": {"tested_on": "redroot pigweed (Amaranthus retroflexus, AMARE)", "test": "Post-emerge test, greenhouse herbicide activity screening", "details": "phytotoxicity rating 0-100 (0 no damage, 100 complete death), 14 days after application", "how_it_was_run": "as §4"}, "[14]": {"tested_on": "ivyleaf morningglory (Ipomoea hederacea, IPOHE)", "test": "Post-emerge test, greenhouse herbicide activity screening", "details": "phytotoxicity rating 0-100 (0 no damage, 100 complete death), 14 days after application", "how_it_was_run": "as §4"}, "[15]": {"tested_on": "sicklepod (Cassia obtusifolia, CASOB)", "test": "Pre-emerge test, greenhouse herbicide activity screening", "details": "pre-emerge, rated 14 days after application, 0 = no damage, 100 = complete death", "how_it_was_run": "as §3"}, "[16]": {"tested_on": "green foxtail (Setaria viridis, SETVI)", "test": "Pre-emerge test, greenhouse herbicide activity screening", "details": "pre-emerge, rated 14 days after application, 0 = no damage, 100 = complete death", "how_it_was_run": "as §3"}, "[17]": {"tested_on": "johnsongrass (Sorghum halepense, SORHA)", "test": "Pre-emerge test, greenhouse herbicide activity screening", "details": "pre-emerge, rated 14 days after application, 0 = no damage, 100 = complete death", "how_it_was_run": "as §3"}, "[18]": {"tested_on": "large crabgrass (Digitaria sanguinalis, DIGSA)", "test": "Pre-emerge test, greenhouse herbicide activity screening", "details": "pre-emerge, rated 14 days after application, 0 = no damage, 100 = complete death", "how_it_was_run": "as §3"}, "[19]": {"tested_on": "velvetleaf (Abutilon theophrasti, ABUTH)", "test": "Pre-emerge test, greenhouse herbicide activity screening", "details": "pre-emerge, rated 14 days after application, 0 = no damage, 100 = complete death", "how_it_was_run": "as §3"}, "[20]": {"tested_on": "lambsquarters (Chenopodium album, CHEAL)", "test": "Pre-emerge test, greenhouse herbicide activity screening", "details": "pre-emerge, rated 14 days after application, 0 = no damage, 100 = complete death", "how_it_was_run": "as §3"}, "[21]": {"tested_on": "barnyardgrass (Echinochloa crus-galli, ECHCG)", "test": "Pre-emerge test, greenhouse herbicide activity screening", "details": "pre-emerge, rated 14 days after application, 0 = no damage, 100 = complete death", "how_it_was_run": "as §3"}, "[22]": {"tested_on": "ivyleaf morningglory (Ipomoea hederacea, IPOHE)", "test": "Pre-emerge test, greenhouse herbicide activity screening", "details": "pre-emerge, rated 14 days after application, 0 = no damage, 100 = complete death", "how_it_was_run": "as §3"}}}
{"smiles": "COc1c(Cl)cc(F)c(-n2c(=O)cc(C(F)(F)F)n(C)c2=O)c1N(C(=O)C1CC1)C(=O)C1CC1", "note": "[2-18]", "values": [{"measurement": "Post-emerge Herbicidal Activity RICE (crop damage)", "setting": "[1]; 63 g ai/ha", "value": 0}, {"measurement": "Post-emerge Herbicidal Activity RICE (crop damage)", "setting": "[1]; 250 g ai/ha", "value": 0}, {"measurement": "Post-emerge Herbicidal Activity CORN (crop damage)", "setting": "[2]; 63 g ai/ha", "value": 0}, {"measurement": "Post-emerge Herbicidal Activity CORN (crop damage)", "setting": "[2]; 250 g ai/ha", "value": 0}, {"measurement": "Pre-emerge crop damage RICE (phytotoxicity rating, scale 0-100)", "setting": "[3]; 63 g ai/ha", "value": 0}, {"measurement": "Pre-emerge crop damage RICE (phytotoxicity rating, scale 0-100)", "setting": "[3]; 250 g ai/ha", "value": 20}, {"measurement": "Pre-emerge crop damage CORN (phytotoxicity rating, scale 0-100)", "setting": "[4]; 63 g ai/ha", "value": 0}, {"measurement": "Pre-emerge crop damage CORN (phytotoxicity rating, scale 0-100)", "setting": "[4]; 250 g ai/ha", "value": 0}, {"measurement": "Pre-emerge Herbicidal Activity AMARE (phytotoxicity rating, scale 0-100)", "setting": "[5]; 63 g ai/ha", "value": 40}, {"measurement": "Pre-emerge Herbicidal Activity AMARE (phytotoxicity rating, scale 0-100)", "setting": "[5]; 250 g ai/ha", "value": 100}, {"measurement": "Post-emerge Herbicidal Activity CASOB", "setting": "[6]; 63 g ai/ha", "value": 0}, {"measurement": "Post-emerge Herbicidal Activity CASOB", "setting": "[6]; 250 g ai/ha", "value": 10}, {"measurement": "Post-emerge Herbicidal Activity SETVI", "setting": "[7]; 63 g ai/ha", "value": 0}, {"measurement": "Post-emerge Herbicidal Activity SETVI", "setting": "[7]; 250 g ai/ha", "value": 0}, {"measurement": "Post-emerge Herbicidal Activity SORHA", "setting": "[8]; 63 g ai/ha", "value": 0}, {"measurement": "Post-emerge Herbicidal Activity SORHA", "setting": "[8]; 250 g ai/ha", "value": 0}, {"measurement": "Post-emerge Herbicidal Activity DIGSA", "setting": "[9]; 63 g ai/ha", "value": 0}, {"measurement": "Post-emerge Herbicidal Activity DIGSA", "setting": "[9]; 250 g ai/ha", "value": 0}, {"measurement": "Post-emerge Herbicidal Activity ABUTH", "setting": "[10]; 63 g ai/ha", "value": 0}, {"measurement": "Post-emerge Herbicidal Activity ABUTH", "setting": "[10]; 250 g ai/ha", "value": 40}, {"measurement": "Post-emerge Herbicidal Activity CHEAL", "setting": "[11]; 63 g ai/ha", "value": 0}, {"measurement": "Post-emerge Herbicidal Activity CHEAL", "setting": "[11]; 250 g ai/ha", "value": 50}, {"measurement": "Post-emerge Herbicidal Activity ECHCG", "setting": "[12]; 63 g ai/ha", "value": 0}, {"measurement": "Post-emerge Herbicidal Activity ECHCG", "setting": "[12]; 250 g ai/ha", "value": 0}, {"measurement": "Post-emerge Herbicidal Activity AMARE", "setting": "[13]; 63 g ai/ha", "value": 0}, {"measurement": "Post-emerge Herbicidal Activity AMARE", "setting": "[13]; 250 g ai/ha", "value": 95}, {"measurement": "Post-emerge Herbicidal Activity IPOHE", "setting": "[14]; 63 g ai/ha", "value": 0}, {"measurement": "Post-emerge Herbicidal Activity IPOHE", "setting": "[14]; 250 g ai/ha", "value": 30}, {"measurement": "Pre-emerge Herbicidal Activity CASOB (phytotoxicity rating, scale 0-100)", "setting": "[15]; 63 g ai/ha", "value": 0}, {"measurement": "Pre-emerge Herbicidal Activity CASOB (phytotoxicity rating, scale 0-100)", "setting": "[15]; 250 g ai/ha", "value": 40}, {"measurement": "Pre-emerge Herbicidal Activity SETVI (phytotoxicity rating, scale 0-100)", "setting": "[16]; 63 g ai/ha", "value": 0}, {"measurement": "Pre-emerge Herbicidal Activity SETVI (phytotoxicity rating, scale 0-100)", "setting": "[16]; 250 g ai/ha", "value": 80}, {"measurement": "Pre-emerge Herbicidal Activity SORHA (phytotoxicity rating, scale 0-100)", "setting": "[17]; 63 g ai/ha", "value": 0}, {"measurement": "Pre-emerge Herbicidal Activity SORHA (phytotoxicity rating, scale 0-100)", "setting": "[17]; 250 g ai/ha", "value": 0}, {"measurement": "Pre-emerge Herbicidal Activity DIGSA (phytotoxicity rating, scale 0-100)", "setting": "[18]; 63 g ai/ha", "value": 0}, {"measurement": "Pre-emerge Herbicidal Activity DIGSA (phytotoxicity rating, scale 0-100)", "setting": "[18]; 250 g ai/ha", "value": 0}, {"measurement": "Pre-emerge Herbicidal Activity ABUTH (phytotoxicity rating, scale 0-100)", "setting": "[19]; 63 g ai/ha", "value": 0}, {"measurement": "Pre-emerge Herbicidal Activity ABUTH (phytotoxicity rating, scale 0-100)", "setting": "[19]; 250 g ai/ha", "value": 100}, {"measurement": "Pre-emerge Herbicidal Activity CHEAL (phytotoxicity rating, scale 0-100)", "setting": "[20]; 63 g ai/ha", "value": 10}, {"measurement": "Pre-emerge Herbicidal Activity CHEAL (phytotoxicity rating, scale 0-100)", "setting": "[20]; 250 g ai/ha", "value": 90}, {"measurement": "Pre-emerge Herbicidal Activity ECHCG (phytotoxicity rating, scale 0-100)", "setting": "[21]; 63 g ai/ha", "value": 0}, {"measurement": "Pre-emerge Herbicidal Activity ECHCG (phytotoxicity rating, scale 0-100)", "setting": "[21]; 250 g ai/ha", "value": 0}, {"measurement": "Pre-emerge Herbicidal Activity IPOHE (phytotoxicity rating, scale 0-100)", "setting": "[22]; 63 g ai/ha", "value": 0}, {"measurement": "Pre-emerge Herbicidal Activity IPOHE (phytotoxicity rating, scale 0-100)", "setting": "[22]; 250 g ai/ha", "value": 40}]}
